According to patent US20250302834A1, “N-ALKYL-2-SUBSTITUTED ATP ANALOGUES FOR USE AS ANTIBACTERIAL AGENT” (UNIVERSITÉ DE LIÈGE, priority 2022, published 2025):

Key:
JE2 S. aureus [1] = test: Bacterial adhesion to Von Willebrand factor under flow; type: cell-based, Staphylococcus aureus; settings: JE2 grown with 1 μg/ml; shear rate 1000 s^-1 for 10 minutes (FIG. 5)
Protocol: Staphylococcus aureus JE2 (USA300 MRSA) in exponential growth phase, non-treated or treated with cangrelor at 1 μg/ml were stained with 30 μg/ml 5(6)-Carboxyfluorescein N-hydroxysuccinimide ester (Sigma-Aldrich) in phosphate-buffered saline (PBS) for 30 minutes at room temperature on a shaker. After incubation, bacteria were centrifuged for 5 minutes at 14,000×g and the supernatant was removed. Next, a washing step was performed by resuspending the bacteria in PBS and removing PBS after centrifugation (5 minutes at 14,000×g). The bacterial pellet was then resuspended in 100 μl of 6% bovine serum albumin (BSA). The stained bacteria were kept on ice until further use in the Von Willebrand factor (VWF) adhesion assay and fibrinogen (Fg) adhesion assay. […]
After perfusion, the coverslip was removed from the system and washed with PBS, followed by a fixation step with 4% paraformaldehyde (PFA, miliporefore, Merck) for 10 minutes. […] Confocal microscopy was performed at a 40× magnification and fluorescence intensity was measured with QuPath software (Bankhead, P. et al. QuPath: Open source software for digital pathology image analysis. Sci. Rep. 7, 1-7 (2017)). A quantification of bacteria adhesion to VWF was determined by determining the percentage of positive pixels, corresponding to the fluorescent signal and bacterial adhesion.

JE2 S. aureus [2] = test: Bacterial adhesion to fibrinogen; type: cell-based, Staphylococcus aureus; settings: JE2 grown with 1 μg/ml (FIG. 6)
Protocol: Staphylococcus aureus JE2 (USA300 MRSA) in exponential growth phase, non-treated or treated with cangrelor at 1 μg/ml were stained with 30 μg/ml 5(6)-Carboxyfluorescein N-hydroxysuccinimide ester (Sigma-Aldrich) in phosphate-buffered saline (PBS) for 30 minutes at room temperature on a shaker. After incubation, bacteria were centrifuged for 5 minutes at 14,000×g and the supernatant was removed. Next, a washing step was performed by resuspending the bacteria in PBS and removing PBS after centrifugation (5 minutes at 14,000×g). The bacterial pellet was then resuspended in 100 μl of 6% bovine serum albumin (BSA). The stained bacteria were kept on ice until further use in the Von Willebrand factor (VWF) adhesion assay and fibrinogen (Fg) adhesion assay.
96-well plates (cellstar, greiner) were coated with human plasma fibrinogen (Fg, Merck) for 24 hours at room temperature, followed by a washing step with PBS. Next, a blocking step with 2% BSA for 1 hour was done followed by a wash step with PBS. Labelled bacteria in exponential phase were then diluted in TSB medium to obtain 10^9 CFU/ml of labelled bacteria. […] Bacterial adhesion was then quantified using a spectrophotometer (multi-mode microplate reader FilterMax F5, molecular devices) Ex.:485 nm and em.:535 nm, a surface scan of the wells was performed. […]

JE2 S. aureus [3] = test: Bacterial growth curve; type: cell-based, Staphylococcus aureus; settings: 1 μg/ml, 20 μg/ml and 40 μg/ml, 7 hours, OD 595 nm (FIG. 7)
Protocol: (§1) A bacterial growth curve and metabolic activity profile was obtained of exponential phase JE2 bacteria following treatment with different concentrations of cangrelor 1 μg/ml, 20 μg/ml and 40 μg/ml. The bacterial growth curve was obtained via a kinetic reading using a spectrophotometer, reading every 10 minutes for 7 hours at an optical density of 595 nm with continuous shaking. The metabolic activity profile was obtained using a Calscreener™ (Symcel), which measures the metabolic response over time (15 hours) in presence of the different concentrations of cangrelor. […] While cangrelor cannot inhibit the bacterial growth of JE2, it can inhibit virulence factors production by this strain upon treatment using a clinically relevant dose of 1 μg/ml.

JE2 S. aureus [4] = test: Staphyloxanthin production, JE2 strain; type: cell-based, Staphylococcus aureus; settings: 1.0 μg/ml (FIG. 4)
Protocol: (§2) Staphylococcus aureus strains included previously characterized infective endocarditis (IE) clinical isolate (Liesenborghs L, Meyers S, Lox M, Criel M, Claes J, Peetermans M, Trenson S, Vande Velde G, Vanden Berghe P, Baatsen P, et al. Staphylococcus aureus endocarditis: distinct mechanisms of bacterial adhesion to damaged and inflamed heart valves. Eur Heart J 2019; 40:3248-3259) or JE2 (USA300 MRSA). Bacteria were grown in Tryptic soy broth (TSB, Sigma) under agitation (200 rpm) at 37° C. Prior to all experiments, a single colony from TSA plates was used to inoculate 4 mL of TSB in 15-mL polystyrene tubes and bacteria were grown overnight. Liquid cultures were then diluted 100-fold in 20 mL of fresh TSB and aliquoted in new tubes. For tetrasodium cangrelor treatment, different concentrations of the drug were added to the corresponding tubes. Tetrasodium cangrelor was dissolved in the culture medium, i.e. Tryptic soy broth which comprises proteins and nutrients for growing bacteria, more particularly: casein, soya peptone, sodium chloride, dipotassium phosphate, dextrose, water. […]
(§3) Bacteria pellets from overnight culture were resuspended in 400 μL methanol and incubated for 30 minutes at 37° C. under gentle agitation on a table shaker. […] Pigment intensity in supernatants was analyzed by measuring the absorbance at 470 nm. […]

JE2 S. aureus [5] = test: Bacterial metabolic activity (Calscreener); type: cell-based, Staphylococcus aureus; settings: 1 μg/ml, 20 μg/ml and 40 μg/ml, 15 hours (FIG. 8)
Protocol: as §1

[6] = system: methicillin-resistant JE2 (USA300) Staphylococcus aureus strain; test: Haemolytic activity of culture supernatant on human red blood cells, JE2 strain; type: cell-based; settings: JE2 (USA300) grown with 1 μg/mL up to stationary phase; supernatant on red blood cells 30 minutes
Protocol: as §2
(§4) Freshly drawn citrate anticoagulated blood from healthy volunteers was centrifugated for 15 minutes at 1,000×g. […] Haemolytic activity was determined in supernatants by measuring the absorbance at 570 nm in a spectrophotometer. […]

[7] = system: Staphylococcus aureus IE clinical isolate; test: Staphyloxanthin production, IE strain; type: cell-based; settings: IE strain grown with 0.5 μg/mL up to exponential phase (FIG. 3)
Protocol: as §2, §3

[8] = system: Staphylococcus aureus IE clinical isolate; test: Haemolytic activity of culture supernatant on human red blood cells, IE strain; type: cell-based; settings: IE strain grown with 0.5 μg/mL up to exponential phase; supernatant on red blood cells 30 minutes
Protocol: as §2, §4

[9] = intravenous bolus (30 μg/kg) followed by 4-μg/kg/min infusion; cited from earlier work
[10] = general statement, no test described; cited from earlier work

With `CSCCNc1nc(SCCC(F)(F)F)nc2c1ncn2[C@@H]1O[C@H](COP(=O)(O)OP(=O)(O)C(Cl)(Cl)P(=O)(O)O)[C@@H](O)[C@H]1O` [cangrelor] the “bacterial adhesion to Von Willebrand factor under flow as compared to vehicle control” value (JE2 S. aureus [1]) was “reduction”, the “bacterial adhesion to fibrinogen as compared to vehicle control” value (JE2 S. aureus [2]) was “reduction” and the “bacterial growth (AUC of growth curve) as compared to vehicle control” value (JE2 S. aureus [3]) was “could not affect”. For the same compound, the “loss of bacteria staphyloxanthin production as compared to vehicle control (set to 100%)” value (JE2 S. aureus [4]) was 90%, the “bacterial metabolic activity as compared to vehicle control” value (JE2 S. aureus [5]) was “could not affect” and the “loss of supernatant haemolytic activity as compared to vehicle control (set to 100%)” value [6] was “complete loss”. The “loss of bacteria staphyloxanthin production as compared to vehicle control (set to 100%)” value [7] was 90%.
For `CSCCNc1nc(SCCC(F)(F)F)nc2c1ncn2[C@@H]1O[C@H](COP(=O)(O)OP(=O)(O)C(Cl)(Cl)P(=O)(O)O)C(O)C1O` (stereo partly shown) [tetrasodium cangrelor], the “loss of supernatant haemolytic activity as compared to vehicle control (set to 100%)” value [8] is listed as 90% and the “steady state concentration of the drug reached in patient” value [9] is listed as 0.5 µg/mL.
For `CCCSc1nc(N[C@@H]2C[C@H]2c2ccc(F)c(F)c2)c2nnn([C@@H]3C[C@H](OCCO)[C@@H](O)[C@H]3O)c2n1` [Ticagrelor], the “solubility in an aqueous environment or medium” value [10] is given as “generally not soluble”.
